Test results: patent publication US6586435B2, “Benzimidazolone derivatives displaying affinity at the serotonin and dopamine receptors” (Boehringer Ingelheim Pharma KG, priority 2000, dated 2003)
Read-outs that look alike come from different tables or passages of the source.

Experiments:
[1] = molecular target: T1, 5-HT1A receptor (CHO/5-HT1A cells) (Homo sapiens, UniProt P08908); assay: 5-HT1A functional assay (cAMP); assay type: cell-based; conditions: 10 μM compound, % inhibition of the cAMP accumulation induced by 10 μM FSK, read-out: 5-HT1A cAMP % Inhibition (agonist activity)
T1 construct: expressed in transfected cells; host or cells: CHO/5-HT1A cells
T1 sequence (P08908 1-422): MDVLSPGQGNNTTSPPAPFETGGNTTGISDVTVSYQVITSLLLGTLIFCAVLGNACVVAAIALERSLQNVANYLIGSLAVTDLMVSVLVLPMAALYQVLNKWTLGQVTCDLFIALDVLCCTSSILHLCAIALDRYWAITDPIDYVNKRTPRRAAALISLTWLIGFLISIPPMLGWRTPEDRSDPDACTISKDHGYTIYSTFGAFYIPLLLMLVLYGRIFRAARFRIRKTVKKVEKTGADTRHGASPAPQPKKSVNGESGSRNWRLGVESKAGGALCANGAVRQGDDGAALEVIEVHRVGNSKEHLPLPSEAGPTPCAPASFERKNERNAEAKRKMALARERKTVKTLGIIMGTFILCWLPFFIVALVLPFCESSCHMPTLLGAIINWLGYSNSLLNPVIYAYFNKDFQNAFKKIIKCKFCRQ
Protocol: 5-HT1A Functional Assay (cAMP)
CHO/5-HT1A cells were random seeded at a density of about 200,000/well in 24 well plates the day prior to the experiment. On the day of the experiment, cells were pretreated for 15 minutes at 37° C. with 500 μM isobutylmethylxantine (IBMX) dissolved in culture medium without serum. Wells were then divided in different groups in duplicate as follows: control, 10 μM FSK, 10 μM FSK+1 μM 5-HT as positive standard and 10 μM FSK+10 μM of the different compound under evaluation. Sample solutions were added and incubated for additional 15 minutes at 37° C. After incubation, medium was aspirated and the reaction stopped by adding 200 μl of lysis buffer. Plates were shaken for 5 minutes, then the lysate was removed and samples were stored at 4° C. until the day of the assay. For the cAMP evaluation, samples were properly diluted and the cAMP content was measured by an enzyme immunoassay system.
Results are expressed as % inhibition of the cAMP accumulation induced by 10 μM FSK.

D4 human receptors = molecular target: T2, D4 human receptors (Homo sapiens, UniProt P21917); assay: D4 radioligand receptor binding assay ([3H] YM-09151-2); conditions: compound 10^−7 M, singlicate; membranes from CHO cells; [3H] YM-09151-2 0.15-0.25 nM
T2 construct: expressed in transfected cells; host or cells: CHO cells
T2 sequence (P21917 1-419): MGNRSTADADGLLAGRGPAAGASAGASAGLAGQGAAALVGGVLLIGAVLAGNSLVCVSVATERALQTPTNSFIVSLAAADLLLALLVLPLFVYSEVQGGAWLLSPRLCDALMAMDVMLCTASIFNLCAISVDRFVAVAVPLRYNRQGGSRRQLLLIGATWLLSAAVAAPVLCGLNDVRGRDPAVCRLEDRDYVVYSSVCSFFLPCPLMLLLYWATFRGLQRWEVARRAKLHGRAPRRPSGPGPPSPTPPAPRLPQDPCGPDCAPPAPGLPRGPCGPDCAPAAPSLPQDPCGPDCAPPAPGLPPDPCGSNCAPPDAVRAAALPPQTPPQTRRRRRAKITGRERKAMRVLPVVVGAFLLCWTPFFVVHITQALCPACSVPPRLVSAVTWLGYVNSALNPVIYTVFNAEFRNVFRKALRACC
Protocol: D4 Radioligand Receptor Binding Assay
Membranes from CHO cells, expressing D4 human receptors were suspended in incubation buffer.
Binding assays were performed in MultiProbe 204 pipetting system (Packard), according to a predetermined mapping, consistent with the software Screen. The compounds were tested in singlicate at one concentration (10^−7 M) in a total volume of 1000 μl (980 μl of diluted membranes, 10 μl DMSO or unlabelled ligand, and 10 μl of [^3H] YM-09151-2 (0.15-0.25 nM). After incubation for 120 minutes at 27° C., the reaction was stopped by rapid filtration through Tomtec Cell Harvester (48 wells) using Filtermat B (presoaked in 0.1% PEI) filters. Filters were washed with ice-cold 50 mM Tris-HCl (pH 7.4) buffer (9×700 μl), dried, covered with MeltiLex B/HS (Wallac) scintillator sheets and heated in oven at 80° C.-90° C. for about 10 minutes, transferred into plastic sample bags (Wallac), sealed and put into 1024 Beta Plate scintillation counter (Wallac). Non-specific binding was determined in the presence of clozapine dissolved in DMSO to a final concentration of 10^−5 M.
The specific radioligand binding to the receptor was defined by the difference between total binding and non-specific binding, determined in the presence of an excess of unlabelled ligand. Results were expressed as percentage of control specific binding obtained in the presence of the compounds.

5-HT1A human receptors = molecular target: T3, 5-HT1A human receptors (Homo sapiens, UniProt P08908); assay: 5-HT1A radioligand receptor binding assay ([3H]-8-OH-DPAT); conditions: for inhibition at 0.1 µM: compound 10^−7 M, singlicate, [3H]-8-OH-DPAT 0.6-0.7 nM
T3 construct: expressed in transfected cells; host or cells: CHO cells
T3 sequence (P08908 1-422): T1 sequence (P08908 1-422)
Protocol: 5-HT1A, Radioligand Receptor Binding Assay
Membranes from CHO cells, expressing 5-HT1A human receptors were suspended in incubation buffer.
Binding assays were performed in MultiProbe 204 pipetting system (Packard), according to a predetermined mapping, consistent with the software Screen. The compounds were tested in singlicate at one concentration (10^−7 M) in a total volume of 1000 μl. 980 μl of diluted membranes, 10 μl DMSO or unlabelled ligand, and 10 μl of [^3H]-8-OH-DPAT (0.6-0.7 nM) were incubated for 60 minutes at 27° C. The reaction was stopped by rapid filtration through Tomtec Cell Harvester (48 wells) using Filtermat B (presoaked in 0.1% PEI) filters. Filters were washed with ice-cold 50 mM Tris-HCl (pH 7.4) buffer (9×700 μl), dried, covered with MeltiLex B/HS scintillator sheets (Wallac) and heated at 80° C. to 90° C. for about 10 minutes, transferred into plastic sample bags (Wallac), sealed and put into 1024 Beta Plate scintillation counter (Wallac). Non-specific binding was determined in the presence of 5-HT (10^−5 M).
The specific radioligand binding to the receptor was defined by the difference between total binding and non-specific binding, determined in the presence of an excess of unlabelled ligand. Results were expressed as percentage of control specific binding obtained in the presence of the compounds. The affinity values (IC50) for the compounds were obtained by a nonlinear least squares regression analysis on the basis of a one binding site model.

[2] = membranes from CHO cells, [3H]-8-OH-DPAT, one binding site model, read-out: 5-HT1A Receptor Binding IC50

Structure (SMILES) | inhibition at 10 µM [1] [%] | inhibition at 0.1 µM (D4 human receptors) [%] | inhibition at 0.1 µM (5-HT1A human receptors; membranes from CHO cells) [%] | IC50 (5-HT1A human receptors; [2]) [nM] | IC50 (5-HT1A human receptors) [nM]
O=c1n(C/C=C\CN2CCN(c3ccccc3)CC2)c2ccccc2n1CC1CCCCC1 [Compound 69] | 52 | 41 | 90 | 13 | 
Cn1c(=O)n(C/C=C/CN2CCN(c3ccccn3)CC2)c2ccccc21 [Compound 89] | 66 | 34 | 92 | 10 | 
CCCn1c(=O)n(C/C=C/CN2CCN(c3ccccn3)CC2)c2ccccc21 [Compound 106] | 68 | 37 | 92 | 7.4 | 
O=c1[nH]c2ccccc2n1C/C=C\CN1CC=C(c2ccccc2)CC1 [Compound 27] | 44 | 70 | 87 |  | 6.4
CCCn1c(=O)n(C/C=C/CN2CCN(c3cccc(C(F)(F)F)c3)CC2)c2ccccc21 [Compound 111] | 68 | 32 | 94 | 4.4 | 
O=c1n(C/C=C/CN2CC=C(c3ccccc3)CC2)c2ccccc2n1CC1CCCCC1 [Compound 129] | 13 |  |  |  | 5.5
O=c1n(C/C=C/CN2CCN(c3cccc(C(F)(F)F)c3)CC2)c2ccccc2n1CC1CCCCC1 [Compound 128] | 61 |  |  | 8.4 | 
CCCn1c(=O)n(C/C=C\CN2CCN(c3ccccc3)CC2)c2ccccc21 [Compound 52] | 54 | 47 | 90 | 16 | 
O=c1n(C/C=C/CN2CCN(c3cccc(Cl)c3)CC2)c2ccccc2n1CC1CCCCC1 [Compound 124] | 47 | 49 | 99 | 11 | 
CCCn1c(=O)n(C/C=C/CN2CC=C(c3ccccc3)CC2)c2ccccc21 [Compound 112] | 9 | 43 | 87 |  | 13
O=c1n(C/C=C/CN2CCN(c3ccccn3)CC2)c2ccccc2n1CC1CCCCC1 [Compound 123] | 63 | 57 | 98 | 1.2 | 
CCCn1c(=O)n(C/C=C\CN2CC=C(c3ccccc3)CC2)c2ccccc21 [Compound 61] | 26 | 44 | 90 |  | 5.2
CCCn1c(=O)n(C/C=C\CN2CCN(c3cccc(Cl)c3)CC2)c2ccccc21 [Compound 56] | 65 | 65 | 92 | 11 | 
O=c1n(C/C=C/CN2CCN(c3ccccc3)CC2)c2ccccc2n1CC1CCCCC1 [Compound 120] | 17 | 49 | 98 | 6 | 
O=c1[nH]c2ccccc2n1C/C=C/CN1CCN(c2cccc(C(F)(F)F)c2)CC1 [Compound 9] | 80 | 54 | 96 |  | 4.8
Cn1c(=O)n(C/C=C/CN2CC=C(c3ccccc3)CC2)c2ccccc21 [Compound 95] | 22 | 46 | 92 |  | 7.3
Cn1c(=O)n(C/C=C\CN2CCN(c3cccc(Cl)c3)CC2)c2ccccc21 [Compound 39] | 63 | 72 | 91 | 9.8 | 
O=c1n(C/C=C/CN2CCc3c([nH]c4ccccc34)C2)c2ccccc2n1CC1CCCCC1 [Compound 126] | 44 |  |  | 15 | 
CCCn1c(=O)n(C/C=C\CN2CCN(c3cccc(C(F)(F)F)c3)CC2)c2ccccc21 [Compound 60] | 71 | 30 | 88 | 1.8 | 
Cn1c(=O)n(C/C=C/CN2CCN(c3cccc(Cl)c3)CC2)c2ccccc21 [Compound 90] | 62 | 79 | 98 | 4.6 | 
CCCn1c(=O)n(C/C=C/CN2CCN(c3cccc(Cl)c3)CC2)c2ccccc21 [Compound 107] | 54 | 69 | 96 | 5.3 | 
O=c1[nH]c2ccccc2n1C/C=C\CN1CCN(c2cccc(C(F)(F)F)c2)CC1 [Compound 26] | 68 | 49 | 94 |  | 6.6
Cn1c(=O)n(C/C=C/CN2CCN(c3cccc(C(F)(F)F)c3)CC2)c2ccccc21 [Compound 94] | 75 |  |  | 0.96 | 
